{"source": "patent US4588526A", "about": "“Bronchodilatory azepino(1,2-A)pyrimidine derivatives and acid addition salts thereof and bronchodilating pharmaceutical compositions containing same” (Chinoin Gyogyszer es Vegyeszeti Termekek Gyara Rt, priority 1982, dated 1986)", "key": {"[1]": {"tested_on": "spasm induced by 5-hydroxy-tryptamine", "test": "Konzett test, inhibition of spasm induced by 5-hydroxy-tryptamine", "format": "in vivo, guinea-pigs", "details": "guinea-pig Konzett test; for ED50: Cavia porcellus, read-out: ID50 spasm inhibition induced by 5-hydroxy-tryptamine", "procedure": "(§1) The activity was determined on the basis of inhibition of spasm induced by three endogenic spasmogenic agents (5-hydroxy-tryptamine histamine, acetyloholine)."}, "[2]": {"tested_on": "spasm induced by histamine", "test": "Konzett test, inhibition of spasm induced by histamine", "format": "in vivo, guinea-pigs", "details": "guinea-pig Konzett test; for ED50: Cavia porcellus, read-out: ID50 spasm inhibition induced by histamine", "procedure": "as §1"}, "[3]": {"tested_on": "spasm induced by acetylcholine", "test": "Konzett test, inhibition of spasm induced by acetylcholine", "format": "in vivo, guinea-pigs", "details": "guinea-pig Konzett test; for ED50: Cavia porcellus, read-out: ID50 spasm inhibition induced by acetylcholine", "procedure": "as §1"}, "[4]": {"details": "Drugs of the Future 1981, 6, 362; cited from earlier work"}, "human bronchus": {"tested_on": "human bronchus", "test": "Human bronchus test, inhibition of Carbacol-induced contraction", "details": "contraction by 1 μmole Carbacol, 37 C; for IC50: amount for 50% inhibition", "excerpt": "As a further Example the activity of the compound of the formula IX is illustrated by human bronchus test. Human bronchus obtained surgically was dipped into an oxygenized physiological solution of 37 C. The contraction is induced by 1 μmole Carbacol."}, "[5]": {"tested_on": "spasm induced by three endogenic spasmogenic agents", "test": "Konzett test, duration of activity and comparison with known compounds", "format": "in vivo, guinea-pigs", "details": "guinea-pig Konzett test; marks all three ID50 values", "procedure": "The activity of the compounds of the invention was examined by Konzett test (Konzett H. and, Rossler R., Arch. Exp. Path. Pharm., 1940, 195 71) using guinea-pigs. The activity was determined on the basis of inhibition of spasm induced by three endogenic spasmogenic agents (5-hydroxy-tryptamine histamine, acetyloholine)."}}}
{"compound": "O=c1c2c(nc3n1CCCCC3)CCC2", "values": [{"measurement": "ED50", "setting": "[1]", "value": 13.8, "unit": "µmol/kg"}, {"measurement": "ED50", "setting": "[2]", "value": 6.5, "unit": "µmol/kg"}, {"measurement": "ED50", "setting": "[3]", "value": 3.7, "unit": "µmol/kg"}]}
{"compound": "O=c1c2ccccc2nc2n1CCCCC2", "note": "[6,7,8,9,10,12-hexahydroazepino[2,1-b]quinazoline-12-one]", "values": [{"measurement": "bronchodilatory activity", "setting": "[4]", "value": "displays bronchodilatory activity"}]}
{"compound": "O=c1c2c(nc3n1CCCCC3)CCCC2", "note": "[IX]", "values": [{"measurement": "IC50", "setting": "human bronchus; Homo sapiens", "value": 5.4, "unit": "µM"}, {"measurement": "inhibition at 100 µM", "setting": "human bronchus; Homo sapiens, dosage 10^-4 (10^-4.0) mole/1, read-out: spasm reduction", "value": 184, "unit": "%"}, {"measurement": "inhibition at 31.62 µM", "setting": "human bronchus; Homo sapiens, dosage 10^-4.5 mole/1, read-out: spasm reduction", "value": 113, "unit": "%"}, {"measurement": "inhibition at 10 µM", "setting": "human bronchus; Homo sapiens, dosage 10^-5.0 mole/1, read-out: spasm reduction", "value": 48, "unit": "%"}, {"measurement": "inhibition at 3.162 µM", "setting": "human bronchus; Homo sapiens, dosage 10^-5.5 mole/1, read-out: spasm reduction", "value": 23, "unit": "%"}, {"measurement": "inhibition at 1 µM", "setting": "human bronchus; Homo sapiens, dosage 10^-6.0 mole/1, read-out: spasm reduction", "value": 3, "unit": "%"}]}
{"compound": "O=c1c2c(nc3n1CCCCC3)CCCC2", "note": "[drawing 9]", "values": [{"measurement": "ID50 spasm inhibition induced by 5-hydroxy-tryptamine", "setting": "[1]", "value": 3.0, "unit": "µmol/kg"}, {"measurement": "ED50", "setting": "[2]", "value": 3.1, "unit": "µmol/kg"}, {"measurement": "ED50", "setting": "[3]", "value": 7.8, "unit": "µmol/kg"}, {"measurement": "duration of activity (footnote x)", "setting": "[5]", "value": "long-lasting activity"}]}
{"compound": "O=c1c2c(nc3n1CCCCC3)CCCC2", "note": "[drawing 10]", "values": [{"measurement": "ID50 spasm inhibition induced by 5-hydroxy-tryptamine", "setting": "[1]", "value": 15.7, "unit": "µmol/kg"}, {"measurement": "ID50 spasm inhibition induced by histamine", "setting": "[2]", "value": 5.4, "unit": "µmol/kg"}, {"measurement": "ID50 spasm inhibition induced by acetylcholine", "setting": "[3]", "value": 6.3, "unit": "µmol/kg"}]}
{"compound": "O=c1c2ccccc2nc2n1CCCCC2", "note": "[drawing 12, reference compound]", "values": [{"measurement": "ED50", "setting": "[1]", "value": 36, "unit": "µmol/kg"}, {"measurement": "ED50", "setting": "[2]", "value": 6.2, "unit": "µmol/kg"}, {"measurement": "ED50", "setting": "[3]", "value": 26.3, "unit": "µmol/kg"}]}
{"compound": "theophilline anisate [reference compound]", "values": [{"measurement": "ID50 spasm inhibition induced by 5-hydroxy-tryptamine", "setting": "[1]", "value": 14.0, "unit": "µmol/kg"}, {"measurement": "ID50 spasm inhibition induced by histamine", "setting": "[2]", "value": 14.0, "unit": "µmol/kg"}, {"measurement": "ID50 spasm inhibition induced by acetylcholine", "setting": "[3]", "value": 22.0, "unit": "µmol/kg"}, {"measurement": "IC50", "setting": "human bronchus", "value": 150, "unit": "µM"}, {"measurement": "spasm reduction", "setting": "human bronchus; dosage 10^-3.75 mole/1, 177.8 µM", "value": 64, "unit": "%"}, {"measurement": "spasm reduction", "setting": "human bronchus; dosage 10^-4 (10^-4.0) mole/1, 100 µM", "value": 28, "unit": "%"}, {"measurement": "spasm reduction", "setting": "human bronchus; dosage 10^-4.25 mole/1, 56.23 µM", "value": 10, "unit": "%"}, {"measurement": "spasm reduction", "setting": "human bronchus; dosage 10^-4.5 mole/1, 31.62 µM", "value": 5, "unit": "%"}]}
